Source: patent publication US20080057529A1, “Method for Identifying Histone Deacetylase Inhibitors” (priority 2003, published 2008)
pEC50: −log10 of the molar value.

Columns and labels:
p21 minimal promoter = test: Transient transfection of HeLa cells with p21m-BLA reporter plasmid, Bla staining (blue cells); format: cell-based, human; details: for Bla staining at 60 min. / fold-ind. at 60 min. (Bla): Table 6; for fold-ind. at 60 min. (Bla) / fold-ind. at 15 min. (Bla): vs DMSO; for Bla staining at 15 min / fold-ind. at 15 min. (Bla): Table 7 (repeat)
Description: (§1) The p21m-BLA reporter plasmid was tested in transient transfection experiments of HeLa cells to evaluate the responsiveness of the minimal p21 promoter and the Bla reporter system to known HDAC inhibitors. In the first two transfection experiments, HeLa cells were transfected with 1 or 2 μg of Bla reporter plasmid containing either p21 minimal promoter (p21m-BLA) or CMV promoter (CMV-BLA) and 0.1 μg of pCMV-Luc or pRSV-Luc control plasmids. Different DNA-FUGENE transfection reagent ratios were tested (FUGENE is available from Roche Applied Science, Indianapolis, Ind.). […] Data are summarized below in Tables 1 and 2.
The percentage of β-lactamase-positive cells increased with time independent of the presence of HDAC inhibitors and was constantly higher with p21m-BLA than with pCMV-BLA.
In light of the above, the lack of apparent Bla activation in the above transfection experiments might have been due to the high sensitivity of the method. Therefore, transient transfections in which an accurate titration of the reporter plasmid DNA were performed. The titration of the reporter plasmid included using amounts lower than was used above. […] The transient transfections were repeated and the result confirmed (Table 7).

clone 1.17 cells = test: Growth inhibition, CYTOSTAR 14C-thymidine uptake; format: cell-based; details: Homo sapiens, 48 h, read-out: ^14C-thymidine EC50
Description: Cells were seeded in a CYTOSTAR-T plate at about 7000 to 10000 cells per well in 100 μL of complete DMEM and incubated 4 hours at 37° C., 5% CO2. Next, 25 μL per well of HDAC inhibitor or DMSO (vehicle control) 5× solutions in complete DMEM was added to the wells along with 5 μL per well of ^14C-thymidine diluted 1:3 in H2O (1.65 μL of thymidine per well, 55 mCi/mmol; 225 μCi/mg; 50 μCi/mL (10 μM final concentration) and incubated at 37° C., 5% CO2. Incorporation of ^14C-thymidine was monitored after 24, 48, and 72 hours by reading the plate in a Packard Instruments TOP-COUNT (CYTOSTAR ^14C method).

CMV promoter = test: Luc activity of co-transfected pCMV-Luc control plasmid in HeLa cells; format: cell-based, human; details: 400 nM, 12 hours
Description: as §1

RSV promoter = test: Luc activity of co-transfected pRSV-Luc control plasmid in HeLa cells; format: cell-based, human; details: Table 2, 400 nM, 12 hours
Description: as §1

HeLa cells = details: saturating amounts, after 48 hours; cited from earlier work
[1] = Table 3, 2 μg p21m-BLA + 0.1 μg pCMV-Luc, 6 hr treatment, TSA 300 nM, Apicidin 1 μM
[2] = Table 3, 2 μg p21m-BLA + 0.1 μg pCMV-Luc, 12 hr treatment, TSA 300 nM, Apicidin 1 μM
[3] = Table 3, 2 μg p21m-BLA + 0.1 μg pCMV-Luc, 24 hr treatment, TSA 300 nM, Apicidin 1 μM
[4] = Apicidin 1 μM, p21m-BLA 0 μg DNA
[5] = Apicidin 1 μM, p21m-BLA 0.02 μg DNA
[6] = Apicidin 1 μM, p21m-BLA 0.05 μg DNA
[7] = Apicidin 1 μM, p21m-BLA 0.1 μg DNA
[8] = Apicidin 1 μM, p21m-BLA 0.2 μg DNA
[9] = Apicidin 1 μM, p21m-BLA 0.5 μg DNA

With CCC(=O)CCCCC[C@@H]1NC(=O)[C@H]2CCCCN2C(=O)[C@H]([C@@H](C)CC)NC(=O)[C@H](Cc2cn(OC)c3ccccc23)NC1=O [Apicidin] the “induction of β-lactamase activity” value (p21 minimal promoter; Apicidin 1 μM, only with the lowest DNA amounts) was 3- to 5 fold, the “% Blue cells” value (p21 minimal promoter; [1]) was 6% and the “% Blue cells” value (p21 minimal promoter; [2]) was 10%. The “% Blue cells” value (p21 minimal promoter; [3]) was 25%, the “Bla staining at 60 min.” value (p21 minimal promoter; [4]) was 0% and the “Bla staining at 60 min.” value (p21 minimal promoter; [5]) was 2-3%. For the same compound, the “fold-ind. at 60 min. (Bla)” value (p21 minimal promoter; [5]) was 3-4 fold, the “Bla staining at 60 min.” value (p21 minimal promoter; [6]) was 10-15% and the “fold-ind. at 60 min. (Bla)” value (p21 minimal promoter; [6]) was 5 fold. For the same compound, the “Bla staining at 60 min.” value (p21 minimal promoter; [7]) was 25-30%, the “fold-ind. at 60 min. (Bla)” value (p21 minimal promoter; [7]) was 2 fold and the “Bla staining at 60 min.” value (p21 minimal promoter; [8]) was 35-40%. For the same compound, the “fold-ind. at 60 min. (Bla)” value (p21 minimal promoter; [8]) was 2 fold, the “Bla staining at 60 min.” value (p21 minimal promoter; [9]) was 50% and the “fold-ind. at 60 min. (Bla)” value (p21 minimal promoter; [9]) was 1.25 fold. The “Bla staining at 15 min” value (p21 minimal promoter; [4]) was 0%, the “Bla staining at 15 min” value (p21 minimal promoter; [5]) was 6-10% and the “fold-ind. at 15 min. (Bla)” value (p21 minimal promoter; [5]) was 2-3 fold. The “Bla staining at 15 min” value (p21 minimal promoter; [6]) was 20-25%, the “fold-ind. at 15 min. (Bla)” value (p21 minimal promoter; [6]) was 4-5 fold and the “Bla staining at 15 min” value (p21 minimal promoter; [7]) was 25-30%. For the same compound, the “fold-ind. at 15 min. (Bla)” value (p21 minimal promoter; [7]) was 2 fold, the “Bla staining at 15 min” value (p21 minimal promoter; [8]) was 40% and the “fold-ind. at 15 min. (Bla)” value (p21 minimal promoter; [8]) was 1.3 fold. The “Bla staining at 15 min” value (p21 minimal promoter; [9]) was 40%, the “fold-ind. at 15 min. (Bla)” value (p21 minimal promoter; [9]) was 1 fold and the pEC50 (clone 1.17 cells) was 6.39.

In the case of CC(/C=C/C(=O)NO)=C\[C@@H](C)C(=O)c1ccc(N(C)C)cc1 [TSA, Trichostatin A], the “% Blue cells” value (p21 minimal promoter; Table 1, 400 nM, 12 hours induction, 1 μg p21m-BLA + 3 μL F) was 1%, the “% Blue cells” value (p21 minimal promoter; Table 1, 400 nM, 12 hours induction, 1 μg p21m-BLA + 5 μL F) was less than 1% and the “% Blue cells” value (p21 minimal promoter; Table 1, 400 nM, 12 hours induction, 2 μg p21m-BLA + 6 μL F) was 1%. The “% Blue cells” value (p21 minimal promoter; Table 1, 400 nM, 12 hours induction, 2 μg p21m-BLA + 10 μL F) was less than 1%, the “% Blue cells” value (p21 minimal promoter; Table 2, 400 nM, 12 hours induction, 1 μg p21m-BLA + 3 μL F) was 5% and the “% Blue cells” value (p21 minimal promoter; Table 2, 400 nM, 12 hours induction, 2 μg p21m-BLA + 6 μL F) was 5%. The “% Blue cells” value (p21 minimal promoter; Table 2, 400 nM, 12 hours, 1 μg p21m-BLA + 3 μL F + CMV-luc) was 4%, the “% Blue cells” value (p21 minimal promoter; Table 2, 400 nM, 12 hours, 1 μg p21m-BLA + 3 μL F + RSV-luc) was 5% and the “% Blue cells” value (p21 minimal promoter; Table 2, 400 nM, 12 hours, 2 μg p21BLA + 6 μL F + CMV-luc) was 4%. For the same compound, the “% Blue cells” value (p21 minimal promoter; Table 2, 400 nM, 12 hours, 2 μg p21m-BLA + 6 μL F + RSV-luc) was 4%, the “% Blue cells” value (p21 minimal promoter; [1]) was 2-3% and the “% Blue cells” value (p21 minimal promoter; [2]) was 10%. The “% Blue cells” value (p21 minimal promoter; [3]) was 10%, the RLU/mg (CMV promoter; Table 1, 1 μg CMV-BLA + 3 μL F, control plasmid not given) was 8986 RLU/mg and the RLU/mg (CMV promoter; Table 1, 1 μg p21m-BLA + 3 μL F, control plasmid pCMV-Luc or pRSV-Luc, not specified) was 52035 RLU/mg. It also gave an RLU/mg (CMV promoter; Table 1, 1 μg p21m-BLA + 5 μL F, control plasmid not given) of 29022.4 RLU/mg, an RLU/mg (CMV promoter; Table 2, 2 μg CMV-BLA + 6 μL F + CMV-luc) of 13085.6 RLU/mg and an RLU/mg (CMV promoter; Table 2, 2 μg p21BLA + 6 μL F + CMV-luc) of 105942 RLU/mg. The RLU/mg (RSV promoter; 1 μg CMV-BLA + 3 μL F + RSV-luc) was 7964.46 RLU/mg, the RLU/mg (RSV promoter; 1 μg p21m-BLA + 3 μL F + RSV-luc) was 24437.8 RLU/mg and the RLU/mg (RSV promoter; 2 μg CMV-BLA + 6 μL F + RSV-luc) was 4972 RLU/mg. For the same compound, the RLU/mg (RSV promoter; 2 μg p21m-BLA + 6 μL F + RSV-luc) was 29989.4 RLU/mg and the “remission from cell cycle arrest” value (HeLa cells) was “complete remission from cell cycle arrest”.
